These results are taken from patent publication US9447083B2, “N-acylhydrazone derivatives for selective T cell inhibitor and anti-lymphoid malignancy drug” (CHONG KUN DANG PHARMACEUTICAL CORP., priority 2012, dated 2016).

For the first test, the system named is Jurkat T cells. Briefly: Pro-apoptotic activity on Jurkat T cells (FITC-Annexin V / 7-AAD flow cytometry). In kind it is cell-based. Particulars: Homo sapiens, 72 hours, cells stained with FITC-Annexin V and 7-AAD among total cells, read-out: Cell Apoptosis Effect to Jurkat T Cell (% in 5 μM). A digest of the protocol:
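Jurkat cells at 1.5×10^5 cells/mL in RPMI/10% FBS treated with compounds at […] or 5 μM final for 72 h at 37° C, vehicle containing 1% DMSO. Stained with FITC-Annexin V and 7-AAD for 15 min at room temperature in pH 7.4 Hepes binding buffer. Apoptosis = % double-stained cells by flow cytometry.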
`CC(=O)N(/N=C/c1ccc2cc[nH]c2c1)C(=O)COc1c(C)cc(C)cc1C` [Compound 243, (E)-N′-((1H-indol-6-yl)methylene)-N-acetyl-2-(mesityloxy)acetohydrazide]: the cytotoxicity at 5 µM came out at 100%.
Still for that read-out and setting: the same measure for `Cc1cc(-c2cccnc2)cc(C)c1OCC(=O)N/N=C/c1c[nH]c2ccccc12` [Compound 138]: 90%; for `Cc1cc(Cl)cc(C)c1OCC(=O)N/N=C/c1ccc2cc[nH]c2c1` [Compound 157, (E)-N′-((1H-indol-6-yl)methylene)-2-(4-chloro-2,6-dimethylphenoxy)acetohydrazide]: 100%.
`Cc1cc(C)c(OCC(=O)N(COC(=O)CN(C)C)/N=C/c2cccc3[nH]ccc23)c(C)c1` [Compound 238, (E)-(2-((1H-indol-4-yl)methylene)-1-(2-(mesityloxy)acetyl)hydrazinyl)methyl 2-(dimethylamino)acetate]: the cytotoxicity at 5 µM was 100%.
Same read-out and setting: to `Cc1cc(CO)cc(C)c1OCC(=O)N/N=C/c1ccc2cc[nH]c2c1` [Compound 228, (E)-N′-((1H-indol-6-yl)methylene)-2-(4-(hydroxymethyl)-2,6-dimethylphenoxy)acetohydrazide] belongs 100%; to `Cc1ccccc1OCC(=O)N/N=C/c1cccc2[nH]ccc12` [Compound 013, (E)-N′-((1H-indol-4-yl)methylene)-2-(o-tosyloxy)acetohydrazide], 100%.
Consider `Cc1cc(C)c(OCC(=O)N(CO)/N=C/c2ccc3cc[nH]c3c2)c(C)c1` [Compound 233, (E)-N′-((1H-indol-6-yl)methylene)-N-(hydroxymethyl)-2-(mesityloxy)acetohydrazide], for which the cytotoxicity at 5 µM was found to be 100%.
As for `Cc1cc(C)c(OCC(=O)N/N=C/c2cccc3[nH]ccc23)c(-c2cccnc2)c1` [Compound 182, (E)-N′-((1H-indol-4-yl)methylene)-2-(2,4-dimethyl-6-(pyridin-3-yl)phenoxy)acetohydrazide], the cytotoxicity at 5 µM was determined as 100%.
Still for that read-out and setting: to `Cc1cc(C)c(OCC(=O)N/N=C/c2ccc3[nH]cnc3c2)c(C)c1` [Compound 205] belongs 100%; to `Cc1cc(C)c(SCC(=O)N/N=C/c2ccc3cc[nH]c3c2)c(C)c1` [Compound 159, (E)-N′-((1H-indol-6-yl)methylene)-2-(mesitylthio)acetohydrazide], 100%; to `Cc1cc(C)c(OCC(=O)N/N=C/c2cc3ccccc3[nH]2)c(C)c1` [Compound 109, (E)-N′-((1H-indol-2-yl)methylene)-2-(mesityloxy)acetohydrazide], 100%.
The same measure, in the same setting: to `Cc1cc(C(C)(C)C)c(OCC(=O)N/N=C/c2cccc3[nH]ccc23)c(C(C)(C)C)c1` [Compound 127, (E)-N′-((1H-indol-4-yl)methylene)-2-(2,6-di-tert-butyl-4-methylphenoxy)acetohydrazide] belongs 100%.
On the same count and under the same terms, the same measure for `Cc1cc(C)c(OCC(=O)N(CO)/N=C/c2cccc3[nH]ccc23)c(C)c1` [Compound 244, (E)-N′-((1H-indol-4-yl)methylene)-N-(hydroxymethyl)-2-(mesityloxy)acetohydrazide]: 100%; for `Cc1cc(C)c(SCC(=O)N/N=C/c2cccc3[nH]ccc23)c(C)c1` [Compound 147, (E)-N′-((1H-indol-4-yl)methylene)-2-(mesitylthio)acetohydrazide]: 100%.
Turning to `Cc1cc(C)c(OCC(=O)N(COC(=O)CN(C)C)/N=C/c2ccc3cc[nH]c3c2)c(C)c1` [Compound 236, (E)-(2-((1H-indol-6-yl)methylene)-1-(2-(mesityloxy)acetyl)hydrazinyl)methyl 2-(dimethylamino)acetate], the cytotoxicity at 5 µM was determined as 100%.

Staying with this test, now noted: Homo sapiens, 72 hours, cells stained with FITC-Annexin V and 7-AAD among total cells, read-out: Jurkat T Cell Apoptosis (% in 5 μM).
With `Cc1ccccc1OCC(=O)N/N=C/c1ccc2cc[nH]c2c1` [Compound 279], the cytotoxicity at 5 µM came out at 100%.
Same read-out and setting: the same measure for `Cc1cc(C)c(OCC(=O)N/N=C/c2ccc3cc[nH]c3c2)c(C2CCCO2)c1` (stereo not drawn) [Compound 332, (E)-N′-((1H-indol-6-yl)methylene)-2-(2,4-dimethyl-6-(tetrahydrofuran-2-yl)phenoxy)acetohydrazide]: 100%; for `CCc1nc(C)ccc1OCC(=O)N/N=C/c1ccc2cc[nH]c2c1` [Compound 293, (E)-N′-((1H-indol-6-yl)methylene)-2-(2-ethyl-6-methylpyridin-3-yloxy)acetohydrazide]: 100%; for `Cc1cc(F)cc(C2CCOC2)c1OCC(=O)N/N=C/c1cccc2[nH]ccc12` (stereo not drawn) [Compound 379, (E)-N′-((1H-indol-4-yl)methylene)-2-(4-fluoro-2-methyl-6-(tetrahydrofuran-3-yl)phenoxy)acetohydrazide]: 100%.
Take `Cc1cc(-c2ccoc2)cc(C)c1OCC(=O)N/N=C/c1ccc2cc[nH]c2c1` [Compound 322, (E)-N′-((1H-indol-6-yl)methylene)-2-(4-(furan-3-yl)-2,6-dimethylphenoxy)acetohydrazide]: the cytotoxicity at 5 µM was found to be 100%.
In the case of `O=C(COc1cccnc1N1CCCC1)N/N=C/c1ccc2cc[nH]c2c1` [Compound 331, (E)-N′-((1H-indol-6-yl)methylene)-2-((2-(pyrrolidin-1-yl)pyridin-3-yl)oxy)acetohydrazide], the cytotoxicity at 5 µM was 100%.

Another test has as its system Experimental Autoimmune Encephalomyelitis (EAE). Nature of the test: Experimental Autoimmune Encephalomyelitis (EAE) model of multiple sclerosis. In kind it is in vivo, mouse. The settings on record: 1 mg/kg orally daily from 17 to 37 days; at 17 days (start of administration). On the procedure: At the first day of induction, myelin oligodendrocyte glycoprotein35-55 (MOG35-55, Peptron) (200 ug), mycobacterium tuberculosis (Difco, Cat No. 231141) (500 μg) and complete Freund's adjuvant (Sigma Aldrich, Cat No. F5506) were mixed with each other and immersed for 5 minutes. 0.1 mL of the immersed peptide was injected subcutaneously into both the flanks of each of C57BL/6 mice (9 week old, female, 18±2 g), followed by that […] pertussis toxin (Sigma Aldrich, Cat No. P2980) (200 ng) was injected by intravenously. At 2 days, the same amount of pertussis toxin was administered intravenously. Whether the immersion leaked from the injected portion of the mice was checked, and whether EAE was induced was also examined by visual observation from 7 days.
Compound 229 and Fingolimod that is currently clinically used for the treatment of multiple sclerosis were completely dissolved in a Cremophor EL-ethanol mixture (1:1, v/v) in an amount corresponding to 7.5% (v/v) of the administration volume, and the compound solution was diluted in PBS. The two groups of the mice were administered orally with 200 μL of the diluted solution of compound 229 at each doses of 25 and 50 mg/kg separately, and the third group of the mice was administered orally with 200 μL of the diluted solution of fingolimode at a dose of 1 mg/kg on a daily basis from 17 days to 37 days (for total 21 times) after starting of the experiment. In a vehicle control group, 200 μL of a Cremophor EL-ethanol-PBS mixture (3.75:3.75:92.5, v/v/v) was administered to each mouse in the same manner as the treated group. The index of EAE was recorded daily based on visual observation using a severity index system (6-point (0 to 5) scale) from 7 days of the experiment. The symptoms of multiple sclerosis were evaluated based on the following criteria:
2: limp tail and hind limb weakness;
4: hind limb paralysis and forelimb weakness; and […]
Turning to `CCCCCCCCc1ccc(CCC(N)(CO)CO)cc1` [Fingolimod, reference compound], the “severity index (EAE, 0 to 5 scale)” value is listed as 3±1.

The same test, now with this note: 1 mg/kg orally daily from 17 to 37 days; at 39 days; vehicle 2.5±0.75.
Regarding `CCCCCCCCc1ccc(CCC(N)(CO)CO)cc1` [Fingolimod, reference compound], the “severity index (EAE, 0 to 5 scale)” value came out at 1.5±0.5.

The test is the same for the next values; noted with them: 1 mg/kg orally daily from 17 to 37 days; at 101 days; vehicle 2.33±0.25.
Turning to `CCCCCCCCc1ccc(CCC(N)(CO)CO)cc1` [Fingolimod, reference compound], the “severity index (EAE, 0 to 5 scale)” value is on record as 2.7±0.25.

For another test, the system named is acute graft-versus-host disease. Nature of the test: Acute graft-versus-host disease, mouse model of allogeneic bone marrow transplantation. The format is in vivo. Particulars: 25 mg/kg intraperitoneally daily for 10 days. An excerpt:
Lymph nodes, spleens, both femurs and tibias were aseptically collected from normal C57BL/6 mice (8-12 week old, female, 20-23 g), and T cells were isolated from the lymph nodes and spleens in the same manner as described in Experimental Example 2 and were re-suspended in PBS at a concentration of 8×10^7 cells/mL. The femurs and tibias were cut at the ends, and the bone marrow was flushed from femurs and tibias with RPMI medium using a syringe (21G for femur and 26G for tibia) to extract the marrow, which was then suspended and passed through a cell strainer to make a single cell suspension. The bone marrow cell suspension was centrifuged at 1200 rpm for 5 minutes, and the supernatant was removed, then the cells were added to 1 mL of ACK lysis buffer and vortexed for 1 minute, followed by washing with RPMI medium. […] The incubated cell suspension was added with 5 mL of MACS buffer, centrifuged for 5 minutes, washed, and then re-suspended in 2 mL of MACS buffer. The suspended cells were placed in the autoMACS Pro Separator, and T cells bound to the CD90.2 microbeads were removed. The separated T cell-depleted bone marrow cells (TCD-BM) were washed with PBS and re-suspended in PBS at a concentration of 1×10^8 cells/mL. Normal BDF1 mice (10-12 week old, female, 20-23 g) were irradiated with 850 rad of γ radiation using an irradiator, and then 100 μL of a graft obtained by mixing the C57BL/6 mouse T cells and the TCD-BM at a ratio of 1:1 was injected into the tail vein of the BDF1 mice. In a group treated with compound 229 of the present invention, compound 229 was completely dissolved in a Cremophor EL-ethanol mixture (1:1, v/v) in an amount corresponding to 15% (v/v) of the administration volume, after which the compound solution was diluted in PBS, and the dilution was administered intraperitoneally to each mouse at a dose of 25 mg/kg daily for 10 days from the day of the graft injection. Meanwhile, Tacrolimus that is a currently clinically used immunosuppressive agent was administered to mice of another group in the same amount as compound 229 in order to compare the inhibitory effect on acute graft-versus-host disease, and mice of a vehicle control group were administered with 200 μL of a Cremophor EL-ethanol-PBS (7.5:7.5:85, v/v/v) in the same manner as the treated groups. Then, the survival of mice was monitored daily, and the severity of GVHD was assessed twice a week with clinical GVHD scoring system for each a decrease in weight loss, hunched posture, decreased activity, fur ruffling and skin lesions. Each parameters were scored on a 3-point (0 to 2) scale.
Take `C=CC[C@@H]1/C=C(\C)C[C@H](C)C[C@H](OC)[C@H]2O[C@@](O)(C(=O)C(=O)N3CCCC[C@H]3C(=O)O[C@H](/C(C)=C/[C@@H]3CC[C@@H](O)[C@H](OC)C3)[C@H](C)[C@@H](O)CC1=O)[C@H](C)C[C@@H]2OC` [Tacrolimus, reference compound]: the “severity of GVHD (clinical scoring system)” value is “ruffled fur and severe skin lesions”.

Staying with this test, now noted: 25 mg/kg intraperitoneally daily for 10 days; final (day 70); vehicle 10%.
On to `C=CC[C@@H]1/C=C(\C)C[C@H](C)C[C@H](OC)[C@H]2O[C@@](O)(C(=O)C(=O)N3CCCC[C@H]3C(=O)O[C@H](/C(C)=C/[C@@H]3CC[C@@H](O)[C@H](OC)C3)[C@H](C)[C@@H](O)CC1=O)[C@H](C)C[C@@H]2OC` [Tacrolimus, reference compound], for which the survival rate stood at 50%.

Staying with this test, now noted: 25 mg/kg intraperitoneally daily for 10 days; vehicle from 29 days.
Regarding `C=CC[C@@H]1/C=C(\C)C[C@H](C)C[C@H](OC)[C@H]2O[C@@](O)(C(=O)C(=O)N3CCCC[C@H]3C(=O)O[C@H](/C(C)=C/[C@@H]3CC[C@@H](O)[C@H](OC)C3)[C@H](C)[C@@H](O)CC1=O)[C@H](C)C[C@@H]2OC` [Tacrolimus, reference compound], the “mouse death, days after cell transplantation” value is not below 23 days.
